# What was measured:
# [1] = molecular target: T1, ATP-dependent translocase ABCB1 (Homo sapiens, UniProt P08183); assay: TP_TRANSPORTER: transepithelial transport of tacrolimus (apical to basal) (Tacrolimus: 1.38-1.48uM) in MDR1-expressing LLC-GA5-COL150 cell; assay type: functional, cell-based; conditions: pig
# [2] = molecular target: T1, ATP-dependent translocase ABCB1; assay: TP_TRANSPORTER: transepithelial transport of digoxin (apical to basal) (Digoxin: 20-30uM) in MDR1-expressing LLC-GA5-COL150 cell; assay type: functional, cell-based; conditions: pig
# T1 sequence (P08183 whole entry): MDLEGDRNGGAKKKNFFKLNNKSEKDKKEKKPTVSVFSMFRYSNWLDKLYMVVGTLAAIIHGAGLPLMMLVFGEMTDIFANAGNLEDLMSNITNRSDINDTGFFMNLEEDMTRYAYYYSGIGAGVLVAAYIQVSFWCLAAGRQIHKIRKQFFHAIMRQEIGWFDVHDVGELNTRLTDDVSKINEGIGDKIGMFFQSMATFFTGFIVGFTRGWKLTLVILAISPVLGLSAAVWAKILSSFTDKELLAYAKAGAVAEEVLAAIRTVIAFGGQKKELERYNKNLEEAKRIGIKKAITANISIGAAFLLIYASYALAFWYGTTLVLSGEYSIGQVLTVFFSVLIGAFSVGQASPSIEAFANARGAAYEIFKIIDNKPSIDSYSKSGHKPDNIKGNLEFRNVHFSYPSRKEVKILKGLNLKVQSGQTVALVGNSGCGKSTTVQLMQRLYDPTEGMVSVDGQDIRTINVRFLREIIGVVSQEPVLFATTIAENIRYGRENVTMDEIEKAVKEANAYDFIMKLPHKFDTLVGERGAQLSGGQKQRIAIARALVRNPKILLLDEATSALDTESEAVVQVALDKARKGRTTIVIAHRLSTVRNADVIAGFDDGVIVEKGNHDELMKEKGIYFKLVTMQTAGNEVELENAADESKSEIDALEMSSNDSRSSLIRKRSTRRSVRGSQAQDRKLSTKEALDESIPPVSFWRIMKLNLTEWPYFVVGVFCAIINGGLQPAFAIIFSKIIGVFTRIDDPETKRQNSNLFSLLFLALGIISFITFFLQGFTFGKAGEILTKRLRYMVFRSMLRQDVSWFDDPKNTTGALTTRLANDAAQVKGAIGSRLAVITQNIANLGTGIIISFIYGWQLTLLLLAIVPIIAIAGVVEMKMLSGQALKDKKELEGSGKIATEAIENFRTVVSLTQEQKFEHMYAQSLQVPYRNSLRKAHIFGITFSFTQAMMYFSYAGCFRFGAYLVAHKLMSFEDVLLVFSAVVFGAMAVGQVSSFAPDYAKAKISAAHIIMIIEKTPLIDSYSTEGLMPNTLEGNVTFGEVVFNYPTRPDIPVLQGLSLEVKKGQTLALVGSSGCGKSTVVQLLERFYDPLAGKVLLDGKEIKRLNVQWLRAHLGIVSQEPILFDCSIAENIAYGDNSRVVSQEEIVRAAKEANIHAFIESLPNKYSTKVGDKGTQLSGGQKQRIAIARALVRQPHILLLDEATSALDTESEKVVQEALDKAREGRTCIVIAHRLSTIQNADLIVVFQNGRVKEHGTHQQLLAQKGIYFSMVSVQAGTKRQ
Activity [1],Activity [2],Compound
inhibitor [+],inhibitor [+],GRAPEFRUIT JUICE
–,inhibitor [+],CC[C@H]1OC(=O)[C@H](C)[C@@H](O[C@H]2C[C@@](C)(OC)[C@@H](O)[C@H](C)O2)[C@H](C)[C@@H](O[C@@H]2O[C@H](C)C[C@H](N(C)C)[C@H]2O)[C@](C)(OC)C[C@@H](C)C(=O)[C@H](C)[C@@H](O)[C@]1(C)O [CLARITHROMYCIN]
inhibitor [+],inhibitor [+],BANPEIYU

# From ChEMBL document CHEMBL2073837, “Inhibitory effects of pomelo on the metabolism of tacrolimus and the activities of CYP3A4 and P-glycoprotein” (Drug Metab Dispos, 2004)
